Reference: patent publication US6630501B1, “Phosphinic pseudo-peptides that may be used as matrix zinc metalloprotease inhibitors” (Commissariat a l'energie Atomique, priority 1999, dated 2003)

How the values were obtained:
MMP-14 (MT1-MMP) = target: T1, MMP-14 (MT1-MMP) (Homo sapiens, UniProt P50281); assay: Ki determination with fluorogenic synthetic substrates, recombinant MMP-14; assay type: biochemical; conditions: for Ki: Tris/50 mM HCl buffer, pH 6.8, 10 mM CaCl2, 25° C., read-out: affinity constant Ki, MMP-14 MT1-MMP
T1 construct: made in house; host or cells: E. coli
Protocol: (§1) The MMPs used were produced in recombinant form, in an E. coli expression system, and then purified using different types of chromatographies. Apart from stromelysin-3 (MMP-11), the MMPs produces correspond to human sequences. The Stromelysin-3 used in this study corresponds to the murine form.
(§2) The activity of each MMP was determined using two fluorogenic synthetic substrates. The cutoff of said substrates, which generates a fluorescent signal proportional to the quantity of split substrate, enables a precise determination of the kinetic parameters. The affinity constants Ki were calculated using the equation of Horowitz et al, Proc. Natl. Acad. Sci. USA, 1987, 84, p. 6654-6658 [14], accounting for the dependency of the percentage of inhibition measured experimentally according to the concentration of inhibitor, as a function of the enzyme and substrate concentration.
(§3) The experiments for conducted in a Tris/50 mM HCl buffer, pH 6.8, 10 mM CaCl2, 25° C.

MMP-1 (HFC) = target: T2, MMP-1 (HFC) (Homo sapiens, UniProt P03956); assay: Ki determination with fluorogenic synthetic substrates, recombinant MMP-1; assay type: biochemical; conditions: for inhibition at 2000 µM / percentage of inhibition, MMP-1: @ 2 mM inhibitor
T2 construct: made in house; host or cells: E. coli
T2 sequence (P03956 100-469): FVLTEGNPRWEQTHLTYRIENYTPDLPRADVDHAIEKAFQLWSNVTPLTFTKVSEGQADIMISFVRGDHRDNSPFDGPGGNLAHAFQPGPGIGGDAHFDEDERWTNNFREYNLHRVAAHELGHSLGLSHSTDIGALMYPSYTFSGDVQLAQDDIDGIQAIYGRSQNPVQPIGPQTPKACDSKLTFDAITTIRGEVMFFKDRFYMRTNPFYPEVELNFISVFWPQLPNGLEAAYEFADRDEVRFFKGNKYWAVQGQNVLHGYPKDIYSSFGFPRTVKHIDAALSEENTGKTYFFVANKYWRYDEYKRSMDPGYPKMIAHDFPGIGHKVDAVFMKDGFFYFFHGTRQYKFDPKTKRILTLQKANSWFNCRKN
Protocol: as §1, §2, §3

MMP-8 (HNC) = target: T3, MMP-8 (HNC) (Homo sapiens, UniProt P22894); assay: Ki determination with fluorogenic synthetic substrates, recombinant MMP-8; assay type: biochemical; conditions: for Ki: Tris/50 mM HCl buffer, pH 6.8, 10 mM CaCl2, 25° C., read-out: affinity constant Ki, MMP-8 HNC
T3 construct: made in house; host or cells: E. coli
T3 sequence (P22894 101-467): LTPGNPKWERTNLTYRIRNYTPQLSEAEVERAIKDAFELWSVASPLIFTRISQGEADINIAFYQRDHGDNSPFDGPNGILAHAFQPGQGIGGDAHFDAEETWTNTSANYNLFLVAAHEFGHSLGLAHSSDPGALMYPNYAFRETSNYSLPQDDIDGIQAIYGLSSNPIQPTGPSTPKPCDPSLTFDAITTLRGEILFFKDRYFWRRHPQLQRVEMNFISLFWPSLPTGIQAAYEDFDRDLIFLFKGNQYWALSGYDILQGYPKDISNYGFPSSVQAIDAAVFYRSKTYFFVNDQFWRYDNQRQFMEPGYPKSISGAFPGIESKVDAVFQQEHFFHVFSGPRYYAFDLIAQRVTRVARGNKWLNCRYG
Protocol: as §1, §2, §3

MMP-2 (Gel-A) = target: T4, MMP-2 (Gel-A) (Homo sapiens, UniProt P08253); assay: Ki determination with fluorogenic synthetic substrates, recombinant MMP-2; assay type: biochemical; conditions: for Ki: Tris/50 mM HCl buffer, pH 6.8, 10 mM CaCl2, 25° C., read-out: affinity constant Ki, MMP-2 Gel-A; for inhibition at 2000 µM: @ 2 mM inhibitor, read-out: percentage of inhibition, MMP-2
T4 construct: made in house; host or cells: E. coli
T4 sequence (P08253 110-660): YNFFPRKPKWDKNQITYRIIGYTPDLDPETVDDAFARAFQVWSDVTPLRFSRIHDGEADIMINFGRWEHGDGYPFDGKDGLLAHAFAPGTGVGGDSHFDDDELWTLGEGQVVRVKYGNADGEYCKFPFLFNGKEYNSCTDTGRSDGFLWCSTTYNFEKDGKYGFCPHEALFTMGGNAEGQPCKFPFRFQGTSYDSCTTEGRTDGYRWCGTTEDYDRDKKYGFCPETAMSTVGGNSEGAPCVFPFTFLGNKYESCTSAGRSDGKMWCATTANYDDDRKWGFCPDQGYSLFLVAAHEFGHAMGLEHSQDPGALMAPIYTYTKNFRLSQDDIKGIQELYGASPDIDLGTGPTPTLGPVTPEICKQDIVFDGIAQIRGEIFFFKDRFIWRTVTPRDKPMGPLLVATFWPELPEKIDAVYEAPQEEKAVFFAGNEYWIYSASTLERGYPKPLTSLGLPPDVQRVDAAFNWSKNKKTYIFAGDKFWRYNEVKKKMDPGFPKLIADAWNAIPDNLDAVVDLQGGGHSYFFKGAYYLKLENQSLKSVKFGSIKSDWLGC
Protocol: as §1, §2, §3

MMP-9 (Gel-B) = target: T5, MMP-9 (Gel-B) (Homo sapiens, UniProt P14780); assay: Ki determination with fluorogenic synthetic substrates, recombinant MMP-9; assay type: biochemical; conditions: for Ki: Tris/50 mM HCl buffer, pH 6.8, 10 mM CaCl2, 25° C., read-out: affinity constant Ki, MMP-9 Gel-B; for inhibition at 2000 µM: @ 2 mM inhibitor, read-out: percentage of inhibition, MMP-9
T5 construct: made in house; host or cells: E. coli
T5 sequence (P14780 94-707): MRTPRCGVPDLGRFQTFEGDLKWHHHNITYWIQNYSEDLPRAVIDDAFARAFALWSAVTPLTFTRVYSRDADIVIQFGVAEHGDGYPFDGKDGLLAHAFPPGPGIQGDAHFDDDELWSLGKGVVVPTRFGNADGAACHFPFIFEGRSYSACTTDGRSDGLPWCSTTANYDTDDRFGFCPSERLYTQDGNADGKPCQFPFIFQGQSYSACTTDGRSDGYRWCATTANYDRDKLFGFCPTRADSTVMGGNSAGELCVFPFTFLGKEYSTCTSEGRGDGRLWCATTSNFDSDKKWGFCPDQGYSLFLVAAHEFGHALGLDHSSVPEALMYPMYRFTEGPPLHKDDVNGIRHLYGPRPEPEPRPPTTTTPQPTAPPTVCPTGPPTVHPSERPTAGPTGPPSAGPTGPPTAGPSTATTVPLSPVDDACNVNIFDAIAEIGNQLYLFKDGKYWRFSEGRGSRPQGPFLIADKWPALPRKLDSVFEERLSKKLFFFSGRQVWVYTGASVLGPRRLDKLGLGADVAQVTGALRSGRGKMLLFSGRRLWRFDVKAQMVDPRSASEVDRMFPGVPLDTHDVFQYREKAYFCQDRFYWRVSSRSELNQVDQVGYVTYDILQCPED
Protocol: as §1, §2, §3

[1] = target: T6, MMP-11 (stromelysin-3, mST3) (Mus musculus, UniProt Q02853); assay: Ki determination with fluorogenic synthetic substrates, recombinant MMP-11; assay type: biochemical, murine; conditions: for Ki: Tris/50 mM HCl buffer, pH 6.8, 10 mM CaCl2, 25° C., read-out: affinity constant Ki, MMP-11 mST3
T6 construct: made in house; host or cells: E. coli
T6 sequence (Q02853 102-492): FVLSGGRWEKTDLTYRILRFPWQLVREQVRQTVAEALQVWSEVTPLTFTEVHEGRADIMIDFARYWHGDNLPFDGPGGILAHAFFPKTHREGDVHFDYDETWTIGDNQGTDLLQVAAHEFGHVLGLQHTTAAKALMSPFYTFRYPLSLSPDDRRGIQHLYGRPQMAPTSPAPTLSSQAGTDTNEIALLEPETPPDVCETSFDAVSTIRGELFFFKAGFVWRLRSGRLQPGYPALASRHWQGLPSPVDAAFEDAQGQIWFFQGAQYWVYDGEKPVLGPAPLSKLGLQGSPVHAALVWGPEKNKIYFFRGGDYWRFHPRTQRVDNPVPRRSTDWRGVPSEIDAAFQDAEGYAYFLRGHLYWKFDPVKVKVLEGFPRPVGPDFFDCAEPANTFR
Protocol: as §1, §2, §3

MMP-7 (Matrilysin) = target: T7, MMP-7 (Matrilysin) (Homo sapiens, UniProt P09237); assay: Ki determination with fluorogenic synthetic substrates, recombinant MMP-7; assay type: biochemical; conditions: for Ki: Tris/50 mM HCl buffer, pH 6.8, 10 mM CaCl2, 25° C., read-out: affinity constant Ki, MMP-7 Matrilysin
T7 construct: made in house; host or cells: E. coli
T7 sequence (P09237 95-267): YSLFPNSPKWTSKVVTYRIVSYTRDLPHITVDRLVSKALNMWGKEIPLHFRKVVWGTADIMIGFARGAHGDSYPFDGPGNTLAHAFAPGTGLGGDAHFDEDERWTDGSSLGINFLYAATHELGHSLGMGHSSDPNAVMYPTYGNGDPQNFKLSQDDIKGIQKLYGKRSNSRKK
Protocol: as §1, §2, §3

[2] = read-out: percentage of inhibition, MMP-1

| Ki (MMP-14 (MT1-MMP)) [µM] | inhibition at 2000 µM (MMP-1 (HFC); [2]) [%] | Ki (MMP-8 (HNC)) [µM] | Ki (MMP-2 (Gel-A)) [µM] | Ki (MMP-9 (Gel-B)) [µM] | Ki [1] [µM] | Compound | further results |
| --- | --- | --- | --- | --- | --- | --- | --- |
| 0.105 | 23 | 0.0025 | 0.02 | 0.01 | 0.005 | NC(=O)[C@H](Cc1c[nH]c2ccccc12)NC(=O)C(CCCc1ccccc1)CP(=O)(O)C(Cc1ccccc1)NC(=O)OCc1ccccc1 (mixture of isomers) [Compound 15, ZPheΨ(PO2CpH2)pPheTrpNH2] | – |
| 0.385 | – | 0.065 | 0.042 | 0.078 | 0.009 | NC(=O)C(Cc1c[nH]c2ccccc12)NC(=O)C(CCCc1ccccc1)CP(=O)(O)C(Cc1ccccc1)NC(=O)OCc1ccccc1 (single isomer, unassigned) [Compound 15 R II] | percentage of inhibition, MMP-7 (MMP-7 (Matrilysin); @ 20 mM inhibitor, listed as R II): 34% @ 20 mM; percentage of inhibition, MMP-1 (MMP-1 (HFC); listed as R II): 16% @ 2 mM |
| 2.29 | – | 0.46 | 0.365 | 0.25 | 0.05 | NC(=O)C(Cc1c[nH]c2ccccc12)NC(=O)C(CCCc1ccccc1)CP(=O)(O)C(Cc1ccccc1)NC(=O)OCc1ccccc1 (single isomer, unassigned) [Compound 15 S II] | percentage of inhibition, MMP-7 (MMP-7 (Matrilysin); @ 20 mM inhibitor, listed as S II): 29% @ 20 mM; percentage of inhibition, MMP-1 (MMP-1 (HFC); listed as S II): 6% @ 2 mM |
| 0.135 | – | 0.016 | 0.045 | 0.033 | 0.005 | NC(=O)C(Cc1c[nH]c2ccccc12)NC(=O)C(CCCc1ccccc1)CP(=O)(O)C(Cc1ccccc1)NC(=O)OCc1ccccc1 (single isomer, unassigned) [Compound 15 S I] | percentage of inhibition, MMP-7 (MMP-7 (Matrilysin); @ 20 mM inhibitor, listed as S I): 59% @ 20 mM; percentage of inhibition, MMP-1 (MMP-1 (HFC); listed as S I): 17% @ 2 mM |
| 0.66 | 10 | 0.045 | 0.275 | 0.11 | 0.0088 | NC(=O)C(Cc1c[nH]c2ccccc12)NC(=O)C(CCc1ccccc1)CP(=O)(O)C(Cc1ccccc1)NC(=O)OCc1ccccc1 (stereo not drawn) [Compound 14] | inhibitory power on MMP-11, in words [1]: very powerful |
| 0.58 | – | 0.0043 | 0.145 | 0.07 | 0.033 | NC(=O)C(Cc1c[nH]c2ccccc12)NC(=O)C(CCCCc1ccccc1)CP(=O)(O)C(Cc1ccccc1)NC(=O)OCc1ccccc1 (stereo not drawn) [Compound 16] | percentage of inhibition, MMP-7 (MMP-7 (Matrilysin); @ 50 mM inhibitor): 65% @ 50 mM; percentage of inhibition, MMP-1 (MMP-1 (HFC)): 5% @ 2 mM |
| 0.545 | 9 | 0.02 | 0.085 | 0.055 | 0.016 | NC(=O)C(Cc1c[nH]c2ccccc12)NC(=O)C(COCc1ccccc1)CP(=O)(O)C(Cc1ccccc1)NC(=O)OCc1ccccc1 (stereo not drawn) [Compound 17] | – |

The remaining lines, values behind:

| Compound | Ki (MMP-14 (MT1-MMP)) [µM] | inhibition at 2000 µM (MMP-1 (HFC); [2]) [%] | Ki (MMP-8 (HNC)) [µM] | Ki (MMP-2 (Gel-A)) [µM] | Ki (MMP-9 (Gel-B)) [µM] | Ki [1] [µM] | further results |
| --- | --- | --- | --- | --- | --- | --- | --- |
| CC(NC(=O)OCc1ccccc1)P(=O)(O)CC(Cc1ccccc1)C(=O)NC(Cc1c[nH]c2ccccc12)C(N)=O (stereo not drawn) [Compound 7] | 2.03 | 24 | 0.24 | 0.25 | 0.28 | 0.35 | – |
| CC(NC(=O)OCc1ccccc1)P(=O)(O)CC(CCc1ccccc1)C(=O)NC(Cc1c[nH]c2ccccc12)C(N)=O (stereo not drawn) [Compound 8] | 0.27 | 23 | 0.02 | 0.08 | 0.06 | 0.051 | – |
| CC(NC(=O)OCc1ccccc1)P(=O)(O)CC(CCCc1ccccc1)C(=O)NC(Cc1c[nH]c2ccccc12)C(N)=O (stereo not drawn) [Compound 9] | 0.092 | 30 | 0.008 | 0.031 | 0.023 | 0.1 | factor by which activity on MMP-8 is multiplied when R3 changes from benzyl to phenylpropyl (MMP-8 (HNC); compound 9 in relation to compound 7): 30 |
| CC(NC(=O)OCc1ccccc1)P(=O)(O)CC(COCc1ccccc1)C(=O)NC(Cc1c[nH]c2ccccc12)C(N)=O (stereo not drawn) [Compound 10] | 0.55 | 15 | 0.019 | 0.25 | 0.044 | 0.175 | – |
| CC(NC(=O)OCc1ccccc1)P(=O)(O)CC(CSCc1ccccc1)C(=O)NC(Cc1c[nH]c2ccccc12)C(N)=O (stereo not drawn) [Compound 11] | 0.026 | 45 | – | 0.014 | 0.006 | 0.036 | – |
| CC(CP(=O)(O)C(Cc1ccccc1)NC(=O)OCc1ccccc1)C(=O)NC(Cc1c[nH]c2ccccc12)C(N)=O (stereo not drawn) [Compound 12] | – | 20 | – | – | – | 2.67 | inhibition at 10000 µM (MMP-14 (MT1-MMP); @ 10 mM inhibitor, read-out: percentage of inhibition, MMP-14): 0%; inhibition at 1000 µM (MMP-8 (HNC); @ 1 mM inhibitor, read-out: percentage of inhibition, MMP-8): 9%; inhibition at 2000 µM (MMP-2 (Gel-A)): 0%; inhibition at 2000 µM (MMP-9 (Gel-B)): 0% |
| CC(C)CC(CP(=O)(O)C(Cc1ccccc1)NC(=O)OCc1ccccc1)C(=O)NC(Cc1c[nH]c2ccccc12)C(N)=O (stereo not drawn) [Compound 13] | 0.192 | – | 0.04 | 0.202 | 0.065 | 0.022 | Ki (MMP-7 (Matrilysin)): 0.21 µM; percentage of inhibition, MMP-1 (MMP-1 (HFC)): 45% @ 2 mM |
| CC(NC(=O)C(CCCc1ccccc1)CP(=O)(O)C(Cc1ccccc1)NC(=O)OCc1ccccc1)C(N)=O (stereo not drawn) [Compound 22] | 2.96 | 9 | 0.24 | – | – | – | inhibition at 2000 µM (MMP-2 (Gel-A)): 31%; inhibition at 2000 µM (MMP-9 (Gel-B)): 45%; inhibition at 1000 µM ([1]; @ 1 mM inhibitor, read-out: percentage of inhibition, MMP-11): 20% |
| NC(=O)C(Cc1c[nH]c2ccccc12)NC(=O)C(CCCc1ccccc1)CP(=O)(O)C(Cc1ccccc1)NC(=O)c1cc2ccccc2[nH]1 (stereo not drawn) [Compound 30] | 0.041 | – | – | 0.01 | 0.008 | 0.0015 | Ki (MMP-7 (Matrilysin)): 0.605 µM; inhibition at 1 µM (MMP-1 (HFC); @ 1 μM inhibitor, read-out: percentage of inhibition, MMP-1): 87% |
